Test results: patent US9645147B2, “Recombinant polypeptide construct comprising Plasmodium falciparum circumsporozoite protein HLA class I restricted T-cell epitopes” (priority 2013, dated 2017)
“Also recorded” adds a separate entry of the source. Peptide text beside a SMILES is read from it.

Assays:
Assay type in all cases: cell-based, human
[1] = tested on: PBMC from volunteers immunized with Ad-CA or Ad-C; experiment: IFN-γ ELISpot assay with cryopreserved PBMC of immunized volunteers; settings: for Epitope sfc/m: Table 4; for ELISpot response to synthesized epitope (in words): volunteers, positive = p<0.05, at least doubling and at least ten sfc over negative control
Experimental: Previous studies have confirmed that recall-T cell responses, as assayed by ELISpot, are detected using cryopreserved PBMCs although such responses are generally of a lower magnitude than fresh cells (Sedegah, et al., Malar J., 9: 241 (2011)).
The positive control was commercially obtained Class I Peptide Pool Plus (Anaspec, USA). Negative control was media with all supplements but no antigen-specific stimulant.
Throughout the studies, IFN-γ ELISpot assays were conducted as previously described (Sedegah, et al., Malar J., 9: 241 (2011); Wang, et al., PNAS (USA), 98: 10817-22 (2001)). Cryopreserved PBMC were suspended in 100 μL complete medium and stimulated with CSP peptides in 100 μL of complete medium at a final concentration of 10 μg/mL of each peptide tested (Wang, et al., PNAS (USA), 98: 10817-22 (2001)).
Cultures were incubated for 36 hours at 37° C., 5% CO2. Depending on availability of cells, each PBMC sample was assayed in duplicate, triplicate, or quadruplicate and the number of IFN-γ-secreting spot forming cells (sfc) was counted using an automated ELISpot reader (AID, GmbH, Germany). In duplicate assays, all values were used in analysis. […] The mean number of sfcs obtained in negative control wells was subtracted from the value of each test well from the same sample. Negative counts generated by this background subtraction were converted to zero. The mean number of spots of the test sample was then calculated and expressed as spot forming cells/million (sfc/m). A positive response was defined as a significant difference (p=<0.05) between average of the number of spot forming cells (sfc) in test wells and the average of negative control wells (Student's two tailed t-test), and at least a doubling of sfc in test wells relative to negative control wells, and a difference of at least ten sfc between test and negative control wells (Sedegah, et al., PLoS One, 6: e24586 (2011)).

[2] = tested on: PBMC depleted of T-cell subsets; experiment: ELISpot IFN-γ after T-cell subset depletion (CD4+ or CD8+ Dynabeads, mock control); settings: for confirmation as recalling CD8+ T cell responses: ELISpot depletion and ICS studies; for CD4+ depl. sfc/m: after CD4+ T cell depletion; for CD4+ depl. (%) percent change in ELISpot activity: after CD4+ T cell depletion vs control depletion; for CD8+ depl. sfc/m: after CD8+ T cell depletion; for CD8+ depl. (%) percent change in ELISpot activity: after CD8+ T cell depletion vs control depletion; for Control dept. sfc/m: mock (control) depletion; for percent reduction of ELISpot response after CD8+ T cell depletion: text summary over the four volunteers of Table 6
Text: For characterization of ELISpot IFN-γ-producing cells by T-cell subset depletions PBMC were depleted of T-cell subsets using anti-human CD4+ or anti-CD8+ coated Dynabeads M-450 (Dynal, Great Neck, N.Y.) following the manufacturer's instructions. Mock depletion was done with Dynabeads coated with sheep anti-mouse IgG. Flow cytometry confirmed that T-cell subset depletions were >99% in all experiments. Data are presented as the spot-forming cells/million (sfc/m) and percent decrease or increase in activity after depletion.
To further evaluate the predicted epitopes, ELISpot depletion assays were performed using PBMC from four volunteers stimulated with six predicted and tested epitopes. CD8+ T cell depletion reduced responses to Cp1 and Cp9 by 82%100%.

CD8+ T cells = experiment: Intracellular cytokine staining (ICS), IFN-γ, CD8+ population; settings: for ICS CD8+ T cell recall responses (in words): ICS assays, volunteers of Table 6; for CD8+ % (per cent of CD8+ T cells expressing IFN-γ): ICS, positive >0.03%
Experimental: (§1) Intracellular cytokine staining (ICS) was performed as published previously (Stewart, et al, Infect. Immun., 75: 2283-90 (2007)). Cryopreserved PBMC were thawed, washed, and resuspended at 10×10^6 cells per mL in complete medium. Peptides were used at 10 μg/mL and costimulatory antibodies anti-CD28 and […] (BD Bioscience, San Jose, Calif.) were used at 1 μg/mL. Stimulants were added to cells and incubated at 37° C. with 5% CO2 for 2 hours. Cells were stained with anti-CD3, anti-CD4, anti-CD8, anti-IFN-γ, anti-TNFα, and anti-IL2 and the entire available sample was acquired on a BD LSRII using FACSDiVa (BD Bioscience) software. Data were analyzed using FlowJo Software (Treestar, Inc.). The gating strategy involved progressively measuring total cells; viable cells; lymphocytes; T cells; CD4+ or CD8+ populations; and finally a specific cell type expressing a specific cytokine. Results were transferred to Prism (GraphPad) for graphing and statistical analysis. Data for peptides were corrected for media responses. A positive response was greater than the medium controls+3 standard deviations (0.03%).

CD4+ T cells = experiment: Intracellular cytokine staining (ICS), IFN-γ, CD4+ population; settings: for ICS CD4+ T cell recall responses (in words): ICS assays, volunteers of Table 6; for CD4+ % (per cent of CD4+ T cells expressing IFN-γ): ICS, positive >0.03%
Experimental: as §1

[3] = volunteer 37 (Ad-C), synthesized epitope, second assay (second value of the cell)
[4] = volunteer 37 (Ad-C), synthesized epitope, single value or first of two assays
[5] = volunteer 40 (Ad-C), synthesized epitope, first of two assays
[6] = volunteer 40 (Ad-C), synthesized epitope, second assay (second value of the cell)

Compound | ELISpot response to synthesized epitope (in words) [1] | confirmation as recalling CD8+ T cell responses [2] | ICS CD8+ T cell recall responses (in words) (CD8+ T cells) | ICS CD4+ T cell recall responses (in words) (CD4+ T cells) | Epitope sfc/m [1, 3] | Epitope sfc/m [1, 4] | Epitope sfc/m [1, 5] [sfc/m] | Epitope sfc/m [1, 6] [sfc/m] | CD4+ depl. sfc/m ([2]; V40) [sfc/m] | CD4+ depl. (%) percent change in ELISpot activity ([2]; V40) [%] | CD8+ depl. sfc/m ([2]; V40) [sfc/m] | CD8+ depl. (%) percent change in ELISpot activity ([2]; V40) [%] | Control dept. sfc/m ([2]; V40) [sfc/m] | CD4+ depl. sfc/m ([2]; V156) [sfc/m] | CD4+ depl. (%) percent change in ELISpot activity ([2]; V156) | CD8+ depl. sfc/m ([2]; V156) [sfc/m] | CD8+ depl. (%) percent change in ELISpot activity ([2]; V156) [%] | Control dept. sfc/m ([2]; V156) [sfc/m] | CD8+ % (per cent of CD8+ T cells expressing IFN-γ) (CD8+ T cells; V40) [%] | CD4+ % (per cent of CD4+ T cells expressing IFN-γ) (CD4+ T cells; V40) [%] | also measured
CC(C)C[C@H](NC(=O)[C@H](C)NC(=O)[C@H](CCC(=O)O)NC(=O)[C@@H](NC(=O)[C@@H](N)Cc1ccccc1)C(C)C)C(=O)N[C@@H](Cc1ccccc1)C(=O)N[C@@H](CCC(N)=O)C(=O)N[C@@H](CCC(=O)O)C(=O)N[C@@H](Cc1ccc(O)cc1)C(=O)O [Epitope E2] | active; also recorded: demonstrated activity | confirmed as recalling CD8+ T cell responses | positive | negative |  |  |  |  |  |  |  |  |  |  |  |  |  |  |  |  | Epitope sfc/m ([1]; volunteer 69 (Ad-C), synthesized 8-10mer epitope): 268 sfc/m; Epitope sfc/m ([1]; volunteer 127 (Ad-CA), synthesized 8-10mer epitope): 89 sfc/m; CD4+ depl. sfc/m ([2]; V69): 254 sfc/m; CD4+ depl. (%) percent change in ELISpot activity ([2]; V69): −15%; CD8+ depl. sfc/m ([2]; V69): 8 sfc/m; CD8+ depl. (%) percent change in ELISpot activity ([2]; V69): −97%; Control dept. sfc/m ([2]; V69): 296 sfc/m; CD8+ % (per cent of CD8+ T cells expressing IFN-γ) (CD8+ T cells; V69): 0.48%; CD4+ % (per cent of CD4+ T cells expressing IFN-γ) (CD4+ T cells; V69): 0.00%
CC[C@H](C)[C@H](NC(=O)[C@@H](N)CC(C)C)C(=O)N[C@@H](CCSC)C(=O)N[C@H](C(=O)N[C@@H](CC(C)C)C(=O)N[C@@H](CO)C(=O)N[C@@H](Cc1ccccc1)C(=O)N[C@@H](CC(C)C)C(=O)N[C@@H](Cc1ccccc1)C(=O)O)C(C)C [Epitope E17a] (H-LIMVLSFLF-OH; N-terminus and C-terminus assumed) | recognized; also recorded: positive; also recorded: demonstrated activity | confirmed as recalling CD8+ T cell responses | positive | negative | 38 sfc/m | 55 sfc/m | 290 | 166 | 210 | −11 | 23 | −90 | 236 | 264 | −18% | 85 | −82 | 307 | 0.54 | 0.02 | CD8+ % (per cent of CD8+ T cells expressing IFN-γ) (CD8+ T cells; V156): 0.26%; CD4+ % (per cent of CD4+ T cells expressing IFN-γ) (CD4+ T cells; V156): 0.01%
CC(C)C[C@H](NC(=O)[C@H](C)NC(=O)[C@H](CCC(=O)O)NC(=O)[C@@H](NC(=O)[C@H](Cc1ccccc1)NC(=O)[C@H](CC(C)C)NC(=O)[C@H](Cc1ccccc1)NC(=O)[C@@H](N)CO)C(C)C)C(=O)N[C@@H](Cc1ccccc1)C(=O)O [Epitope E20] (H-SFLFVEALF-OH; N-terminus and C-terminus assumed) | moderately positive; also recorded: demonstrated activity | confirmed as recalling CD8+ T cell responses | positive | negative | 53, 53 sfc/m | 53, 53 sfc/m | 313 | 197 | 226 | −11 | 15 | −94 | 254 | 273 | +28% | 29 | −86 | 213 | 0.37 | 0.04 | Epitope sfc/m ([1]; volunteer 68 (Ad-C), synthesized 8-10mer epitope): 34 sfc/m; Epitope sfc/m ([1]; volunteer 156 (Ad-CA), synthesized 8-10mer epitope): 240 sfc/m; CD8+ % (per cent of CD8+ T cells expressing IFN-γ) (CD8+ T cells; V156): 0.25%; CD4+ % (per cent of CD4+ T cells expressing IFN-γ) (CD4+ T cells; V156): 0.01%
SVSSFLFVEA (listed as Plasmodium falciparum) [Epitope E19, CSP aa 9-18] | moderately active; also recorded: demonstrated activity | confirmed as recalling CD8+ T cell responses | weakly positive |  |  |  |  |  |  |  |  |  |  |  |  |  |  |  |  |  | Epitope sfc/m ([1]; volunteer 125 (Ad-CA), synthesized 8-10mer epitope): 33 sfc/m; CD4+ depl. sfc/m ([2]; V125): 17 sfc/m; CD4+ depl. (%) percent change in ELISpot activity ([2]; V125): −78%; CD8+ depl. sfc/m ([2]; V125): 72 sfc/m; CD8+ depl. (%) percent change in ELISpot activity ([2]; V125): −9%; Control dept. sfc/m ([2]; V125): 79 sfc/m; percent reduction of ELISpot response after CD8+ T cell depletion [2]: 9%; CD8+ % (per cent of CD8+ T cells expressing IFN-γ) (CD8+ T cells; V125): 0.06%; CD4+ % (per cent of CD4+ T cells expressing IFN-γ) (CD4+ T cells; V125): 0.02%
VFNVVNSSI [Epitope E13a] | demonstrated activity | confirmed as recalling CD8+ T cell responses | positive | negative |  |  | 104 | 72 | 43 | −50 | 38 | −56 | 86 |  |  |  |  |  | 0.12 | 0.01 | percent reduction of ELISpot response after CD8+ T cell depletion [2]: 56%
